Our source for the IC50 values is patent publication US11542273B2, “Amide compound having bet proteolysis-inducing action and medicinal application thereof” (MITSUBISHI TANABE PHARMA CORPORATION, priority 2018, dated 2023).

Data set [1] has as its system human prostate cancer LNCaP cells. Briefly: Cytotoxic action on cancer cells (WST-8, 96 hr). Type of data set: cell-based. To be noted: LNCaP cells, 96 hr culture, WST-8; read-out: LNCaP cytotoxic activity: IC50. The method in brief: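 Growth medium was 10% FBS/RPMI1640 throughout, with compound added after an overnight culture at 37° C. Survival was scored by WST-8 relative to untreated cells.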

Another data set has as its target BRD4 bromodomain 1 (Homo sapiens (Human), UniProt O60885). Briefly: Inhibitory action on binding of BRD4 protein and ligand, Test Method 1 (TR-FRET, BRD4 bromodomain 1 TR-FRET Assay Kit). To be noted: Test Method 1, BRD4 bromodomain 1 and ligand. On the procedure:
The inhibitory action of the compound of the present invention on the binding of BRD4 protein and a ligand thereof was evaluated by the time-resolved fluorescence resonance energy transfer (TR-FRET) method using BRD4 bromodomain 1 TR-FRET Assay Kit (Cayman). In this experiment, (+)-JQ1 known to have an inhibitory activity on the binding of BRD4 protein and a ligand therefor was used as a positive control drug. A test compound dissolved in DMSO was diluted with TR-FRET Assay Buffer, added to a 384 well black plate, BRD4 bromodomain 1 Europium Chelete was further added and the cells were incubated at room temperature for 15 min. Thereafter, BRD4 bromodomain 1 Ligand/APC Acceptor Mixture was added and the cells were incubated at room temperature for 1 hr. The binding amount of the BRD4 protein and ligand was measured as fluorescence intensity (excitation: 340 nm/emission: 620 nm and excitation: 340 nm/emission: 670 nm).
It was calculated from the straight line connecting the degradation rate at two points enclosing the 50% fluorescence intensity and the compound concentration.
(In general: Time-resolved FRET reads energy transfer from a long-lived donor to a nearby acceptor.)

The next data set addresses BRD4-1 (GST) (Homo sapiens (Human), UniProt O60885). The data set can be described thus: Inhibitory action on binding of BRD4 protein and acetylated histone H4, Test Method 2 (TR-FRET). To be noted: Test Method 2, BRD4-1 (GST) and acetylated histone H4, TR-FRET. On the procedure:
The inhibitory action of the compound of the present invention on the binding of BRD4 protein and a ligand thereof (acetylated histone H4) was evaluated by the time-resolved fluorescence resonance energy transfer (TR-FRET) method using EPIgeneous™ Binding Domain Kit A (Cisbio), BRD4-1 (GST) (Reaction Biology Corp) and [Lys(Ac)5/8/12/16]-Histone H4(1-21)-GGK (Biotin) (Eurogentec). In this experiment, (+)-JQ1 known to have an inhibitory activity on the binding of BRD4 protein and acetylated histone H4 therefor was used as a positive control drug. A test compound dissolved DMSO was diluted with attached Diluent Buffer, added to a 384 well white plate, and BRD4-1 (GST) and [Lys(Ac)5/8/12/16]-Histone H4(1-21)-GGK (Biotin) were further added. Thereafter, Streptavidin-d2 conjugate and Anti-GST-Eu^3+ Cryptate Conjugate were added and the cells were incubated at room temperature for 3 hr. The binding amount of the BRD4 protein and acetylated histone H4 was measured as the fluorescence intensity (excitation: 314 nm/emission: 620 nm and excitation: 314 nm/emission: 665 nm). […] It was calculated from the straight line connecting the degradation rate at two points enclosing the 50% fluorescence intensity and the compound concentration.

With (+)-JQ1 [reference compound], the half-maximal inhibitory concentration (IC50) (as a rule, the midpoint of a concentration-inhibition curve) in data set [1] is 19 µM; at BRD4 bromodomain 1, 7.4 µM; on BRD4-1 (GST), 0.55 µM.
